Reference: patent publication US20050277586A1, “Peptide chemically modified with polyethylene glycol” (priority 2002, published 2005)

Columns and labels:
nuclease Bal 31 = assay: Nuclease resistance-imparting ability for natural (P=O form) oligonucleotide; format: biochemical; details: 2 U Bal 31, 30° C., 60 minutes
Description: Nuclease resistance-imparting ability for natural (P═O form) oligonucleotide was evaluated. To be more specific, 2 U of nuclease Bal 31 (manufactured by Takara Shuzo) was added to 20 mM Tris-HCl buffer (pH=8) containing 50 μM of the peptide of SEQ ID NO: 1 prepared in Example 1, 3 μM of P═O form oligonucleotide prepared in Example 6, 150 mM NaCl, 12 mM MgCl2, and 12 mM CaC12, and the reaction was allowed to take place at 30° C. for 60 minutes. Next, the oligonucleotide which escaped from the decomposition was extracted with phenol/chloroform, and subjected to electrophoresis by the procedure described in Example 8 to stain the oligonucleotide.

plasmid (pUC119) = assay: Binding ability to plasmid (agarose gel electrophoresis); details: charge ratio (±ratio) of 3
Description: The plasmid prepared by the procedure described in Example 7 (pUC119; final concentration, 20 μg/mL) and the peptides prepared by the procedure described in Examples 1 to 3 were mixed in 20 mM Tris HCl buffer (pH=7.2) containing 150 mM NaCl at a charge ratio (±ratio) of 0 to 3, and the mixture was allowed to stand at 37° C. for 30 minutes. Electrophoresis was then conducted on 1% agarose gel to thereby determine the binding of the plasmid and the peptide.
The ±ratio (charge ratio) indicated in FIG. 11 is the ratio of the number (+) of the positively-charged groups in the peptide to the number (−) of negatively-charged groups in the plasmid. As evident in FIG. 11, the amount of plasmid that became bound to the peptide increased with the increase in the charge ratio (±ratio), and the plasmid was fully bound to the peptide at a charge ratio (±ratio) of 3. The peptides of SEQ ID NO: 2 to SEQ ID NO: 24 were also found to bind at a charge ratio (±ratio) of 3.

Vero cell = assay: Accumulation of FITC-labeled oligonucleotide in cell nucleus; format: cell-based, monkey; details: 300 nM FITC-labeled oligonucleotide, 2.5 μM peptide
Description: Vero cell was inoculated in the well of a chamber slide (Lab-Tek II chamber slide, size 4 well, manufactured by NALGEN NUNC) at a rate of 1×10^5 cells/well, and the cells were cultivated in DMEM supplemented with 10% FBS in 5% CO2 atmosphere at 37° C. for 24 hours. After removing the medium, opti-MEM containing 300 nM FITC-labeled oligonucleotide prepared in Example 6 and 2.5 μM of the peptide of SEQ ID NO: 1 prepared in Example 1 was added, and the cultivation was continued for 4 hours. The medium was replaced with DMEM supplemented with 10% FBS, and the cultivation was continued in 5% CO2 atmosphere at 37° C. for another 24 hours. After washing the cell with PBS, the cells were fixed by using PBS containing 4% paraformaldehyde, and accumulation of FITC-labeled oligonucleotide in the cell nucleus was confirmed by using a fluorescence microscope (AH-3, manufactured by Olympus). […] On the other hand, accumulation of FITC-labeled oligonucleotide in the cell was not confirmed in the absence of the peptide of SEQ ID NO: 1.

Binding of plasmid to the peptide (plasmid (pUC119)): fully bound
Sequence: TRYLRIHPRSWVHQIALRLRYLRIHPRSWVHQIALRS [SEQ ID NO: 1]
Nuclease resistance-imparting ability for natural (P=O form) oligonucleotide (nuclease Bal 31): exhibit nuclease resistance-imparting ability | Accumulation of FITC-labeled oligonucleotide in the cell nucleus (Vero cell): FITC-labeled oligonucleotide was accumulated in the cell nucleus
